Assays:
HL-60 cells = settings: Kraft et al. 1986; cited from earlier work
[1] = tested on: BDNF, NGF, NT-3, and GAP-43 mRNA; assay: NTF mRNA expression in primary hippocampal neurons treated with Aβ (real time PCR); format: cell-based, rat; settings: co-treated 24 hours or treated 12 hours after Aβ
Protocol: Protocol: Primary hippocampal neurons were treated with control buffer (Untreated), Aβ (1 μM, oligomeric form), or 0.5 nM bryostatin for 24 hours. Some cells were co-treated with Aβ plus 0.5 nM bryostatin (Bryo+Aβ) for 24 hours, or pre-treated with Aβ for 12 hours, washed out, and then treated with bryostatin for additional 12 hours (Aβ+Bryo). Cells were then lysed and total RNA was isolated. Relative expression change of BDNF, NGF, NT-3, and GAP-43 mRNA was quantitatively measured from real time PCR using specific primers against rat BDNF, NGF, NT-3, and GAP-43 mRNA (FIG. 14). A representative gel image is also shown below in FIG. 14 (Mean+SEM, *P<0.05, Aβ compared with untreated; #P<0.05, Bryo+Aβ or Aβ+Bryo compared with Aβ only).
Test A—DCPLA (500 nM): Primary hippocampal neurons were treated with control buffer (Untreated), Aβ (1 μM, oligomer), or 500 nM DCPLA for 24 hours. Some cells were pre-treated with Aβ for 12 hr and then treated with 500 nM DCPLA for 12 hours (Aβ+DCP-LA), or co-treated with Aβ plus 500 nM DCP-LA (DCP-LA+Aβ) for 24 hours. Total RNA was isolated and relative expression change of BDNF, NGF, NT-3, and GAP-43 mRNA was quantitatively measured from real time RT-PCR using specific primers against rat BDNF, NGF, NT-3, and GAP-43 mRNA (FIG. 15). A representative gel image is also shown below in FIG. 15 (Mean+SEM of three independent experiments, *P<0.05, Aβ compared with untreated; #P<0.05, Aβ+Bryo or Bryo+Aβ compared with Aβ only).
Test B—DCPLA-methyl ester (100 nM): Primary hippocampal neurons were treated with control buffer (Untreated), 1 μM Aβ, or 100 nM DCP-LA ME (the methyl ester form of DCP-LA) for 24 hours. Some cells were pre-treated with Aβ for 12 hr and then treated with 100 nM DCP-LA ME for 12 hours (Aβ+DCP-LA ME), or co-treated with Aβ plus […] (DCP-LA ME+Aβ) for 24 hours. Total RNA was isolated and relative expression change of BDNF, NGF, NT-3, and GAP-43 mRNA was quantitatively measured from real time RT-PCR using specific primers against rat BDNF, NGF, NT-3, and GAP-43 mRNA (FIG. 16). […]

PKC-ε = molecular target: T1, PKC-ε (Mus musculus, UniProt P16054); assay: PKC-ε activation and translocation by bryostatin in mouse brain (Western blot); format: in vivo
T1 construct: from tissue; host or cells: brain of C57BL/6 mice
T1 sequence (P16054 1-737): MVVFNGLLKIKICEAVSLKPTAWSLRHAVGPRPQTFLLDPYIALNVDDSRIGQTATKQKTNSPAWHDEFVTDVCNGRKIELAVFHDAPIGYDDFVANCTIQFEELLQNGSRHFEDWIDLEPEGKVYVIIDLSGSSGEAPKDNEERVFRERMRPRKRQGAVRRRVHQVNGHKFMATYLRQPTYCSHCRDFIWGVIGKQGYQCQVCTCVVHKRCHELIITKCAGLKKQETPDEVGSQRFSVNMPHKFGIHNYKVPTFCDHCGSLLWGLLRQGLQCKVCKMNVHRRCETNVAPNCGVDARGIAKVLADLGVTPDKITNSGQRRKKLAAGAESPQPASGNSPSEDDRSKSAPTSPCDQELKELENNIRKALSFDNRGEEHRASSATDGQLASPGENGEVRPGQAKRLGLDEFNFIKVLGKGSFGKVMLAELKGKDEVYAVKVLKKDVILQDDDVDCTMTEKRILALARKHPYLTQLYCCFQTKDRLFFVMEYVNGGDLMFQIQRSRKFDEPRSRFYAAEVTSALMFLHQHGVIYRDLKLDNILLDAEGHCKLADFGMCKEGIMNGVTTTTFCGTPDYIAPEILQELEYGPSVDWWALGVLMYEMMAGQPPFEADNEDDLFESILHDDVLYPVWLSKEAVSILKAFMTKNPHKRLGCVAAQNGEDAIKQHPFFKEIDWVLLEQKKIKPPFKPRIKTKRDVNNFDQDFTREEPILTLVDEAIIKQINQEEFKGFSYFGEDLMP
Protocol: Protocol: Male C57BL/6M mice (15-20 g, Charles River) were acclimatized for 7-8 days in a non-enriched environment, three mice per cage. Bryostatin (Tocris) was dissolved in DMSO, diluted into 0.9% saline, and injected into the tail vein at doses of 10 and 15 μg/m2. After a fixed period, the mice were anesthetized with CO2 and the brain was frozen on dry ice. Blood was mixed with 0.2 ml 1 mM EDTA in PBS, centrifuged at 100 g for 30 min, and plasma was frozen on dry ice. In some experiments, blood lymphocyte fractions were collected using Ficoll-Paque Plus reagent using the procedure recommended by the manufacturer. All animal procedures were approved by the institutional IACUC.
Activation and translocation of PKC-ε were measured by Western blotting after subcellular fractionation into cytosol and particulate fractions. Homogenates were centrifuged at 100,000×g for 20 min and cytosolic and particulate fractions were separated on 4-20% Tris-glycine SDS polyacrylamide gels, blotted onto nitrocellulose, and probed with isozyme specific antibodies. The blots were photographed in a GE ImageQuant at 16 bits/pixel and analyzed by vertical strip densitometry using Imal Unix software.
Bryostatin was injected into the tail vein of C57BL/6N mice at 10 and 15 μg/m2 (equivalent to 3.50 and 5.25 μg/kg), and brain PKC-ε concentration was measured using Western blots. Brain PKC-ε activation was biphasic, peaking at 0.5 h and slowly declined toward resting levels, even though bryostatin levels continued to increase. This is consistent with the short-lived activation of PKC established previously. […] The bryostatin concentration at 0.5 h was 0.029 nM.
The results of a dose dependence study of activation of PKCα and PKCε translocation by bryostatin, are shown below in FIG. 4 (measured 30 minutes after administration), and FIG. 5 (measured 120 minutes after administration). The effect of bryostatin on brain PKC translocation (an indicator of enzymatic activation) was also biphasic, with maximal effects observed at doses between 5 and 10 μg/m2.

Structure (SMILES)	phorbol ester-induced differentiation of HL-60 cells (HL-60 cells)	NTF mRNA expression decreased by Aβ ([1]; 0.5 nM, Aβ 1 μM oligomeric)	PKC-ε translocation in mouse brain (PKC-ε; 30 and 120 minutes after administration)	downregulation of brain PKC-ε (PKC-ε; tail vein 10 and 15 μg/m2, C57BL/6N mice)	time of peak brain PKC-ε activation (PKC-ε; tail vein 10 and 15 μg/m2, C57BL/6N mice, biphasic)	NTF mRNA expression decreased by Aβ ([1]; 500 nM, Aβ 1 μM oligomer)
CCC/C=C/C=C/C(=O)O[C@H]1/C(=C/C(=O)OC)C[C@H]2C[C@H]([C@@H](C)O)OC(=O)C[C@H](O)C[C@@H]3C[C@H](OC(C)=O)C(C)(C)[C@](O)(C[C@@H]4C/C(=C/C(=O)OC)C[C@H](/C=C/C(C)(C)[C@]1(O)O2)O4)O3 [Bryostatin, bryostatin-1]	block phorbol ester-induced differentiation of HL-60 cells	recovers NTF mRNA expression decreased by Aβ	translocation was only observed by PKC-ε	No downregulation below starting values was observed	0.5 h	
CCCCCC1CC1CC1CC1CCCCCCCC(=O)O (stereo not drawn) [DCPLA, 8-[2-(2-pentylcyclopropyl)methyl]-cyclopropaneoctanoic acid]						recovers NTF mRNA expression decreased by Aβ

From patent US20160025704A1, “METHODS FOR IDENTIFYING NEUROPROTECTIVE PKC ACTIVATORS” (priority 2013, published 2016)
